Measurements published in patent US11109593B2, “Isoxazolin-5-one derivative and herbicide containing same as active ingredient” (HOKKO CHEMICAL INDUSTRY CO., LTD., priority 2017, dated 2021).

These compounds were tested on Echinochloa crus-galli (assay: Test Example 1: herbicidal effect test by treatment of rice paddy soil (immediately after seeding)). Conditions: 120 g/10a active ingredient, dry weight vs untreated area, 14 days after treatment.
Format: in vivo
In short: (§1)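 Paddy soil in pots with compound fertilizer, puddled; 30 seeds per species sown at 0–1 cm, flooded ~3 cm, greenhouse. Water-diluted emulsions dropped onto water immediately after seeding at 120 g active ingredient per 10 ares, duplicate. Herbicidal rate (%) from plant dry weight versus untreated, 14 days after treatment.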

Going from `Cc1c(Cc2ccccc2NS(=O)(=O)C(F)(F)F)c(=O)on1CCc1ccccc1` [Compound 1-216] to `CCn1oc(=O)c(Cc2ccccc2N(S(=O)(=O)C(F)(F)F)S(=O)(=O)C(F)(F)F)c1C` [Compound 1-960], the “Herbicidal rate (%) Echinochloa crus-galli” value falls from 90% to 80%.

For `CCCOC(=O)N(c1ccccc1Cc1c(C)n(C(C)(C)C)oc1=O)S(=O)(=O)C(F)(F)F` [Compound 1-631], the “Herbicidal rate (%) Echinochloa crus-galli” value was 90%.

What follows are compounds tested on Scirpus juncoides in the same assay as above. Conditions: 120 g/10a active ingredient, dry weight vs untreated area, 14 days after treatment.
Format: in vivo
In short: as §1

First: Cc1c(Cc2ccccc2NS(=O)(=O)C(F)(F)F)c(=O)on1CCc1ccccc1 [Compound 1-216]
Second: CCn1oc(=O)c(Cc2ccccc2N(S(=O)(=O)C(F)(F)F)S(=O)(=O)C(F)(F)F)c1C [Compound 1-960]
The “Herbicidal rate (%) Scirpus juncoides” value of the first is higher: 100% for the first, 80% for the second.

With `CCCOC(=O)N(c1ccccc1Cc1c(C)n(C(C)(C)C)oc1=O)S(=O)(=O)C(F)(F)F` [Compound 1-631] the “Herbicidal rate (%) Scirpus juncoides” value was 90%.

The compounds below were run on broad leaf weeds (Lindernia pyxidaria and Monochoria vaginalis) in the same assay as above. Conditions: Lindernia pyxidaria, 120 g/10a active ingredient, dry weight vs untreated area, 14 days after treatment.
Format: in vivo
In short: as §1

First: Cc1c(Cc2ccccc2NS(=O)(=O)C(F)(F)F)c(=O)on1CCc1ccccc1 [Compound 1-216]
Second: CCn1oc(=O)c(Cc2ccccc2N(S(=O)(=O)C(F)(F)F)S(=O)(=O)C(F)(F)F)c1C [Compound 1-960]
The “Herbicidal rate (%) Lindernia pyxidaria” value of the first is higher: 100% for the first, 70% for the second.

`CCCOC(=O)N(c1ccccc1Cc1c(C)n(C(C)(C)C)oc1=O)S(=O)(=O)C(F)(F)F` [Compound 1-631] was tested, and the “Herbicidal rate (%) Lindernia pyxidaria” value was 90%.

Same assay, conditions: Monochoria vaginalis, 120 g/10a active ingredient, dry weight vs untreated area, 14 days after treatment

First: Cc1c(Cc2ccccc2NS(=O)(=O)C(F)(F)F)c(=O)on1CCc1ccccc1 [Compound 1-216]
Second: CCn1oc(=O)c(Cc2ccccc2N(S(=O)(=O)C(F)(F)F)S(=O)(=O)C(F)(F)F)c1C [Compound 1-960]
The “Herbicidal rate (%) Monochoria vaginalis” value of the first is higher: 100% for the first, 70% for the second.

With `CCCOC(=O)N(c1ccccc1Cc1c(C)n(C(C)(C)C)oc1=O)S(=O)(=O)C(F)(F)F` [Compound 1-631] the “Herbicidal rate (%) Monochoria vaginalis” value was 90%.

These compounds were tested on Echinochloa crus-galli (assay: Test Example 2: herbicidal effect test by treatment during growing period in paddy rice cultivation (seven days after seeding)). Conditions: 120 g/10a active ingredient, assessed 14 days after treatment, dry weight vs untreated area.
Format: in vivo
In short: (§2)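 Emulsion formulations, diluted in water, applied dropwise to flooded pots (about 3 cm water) 7 days post-seeding at 120 g a.i./10 ares. Weeds sown 30 seeds each, 0–1 cm deep in puddled paddy soil; greenhouse. Readout: % reduction in plant dry weight vs untreated, day 14, duplicates.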

First: Cc1c(Cc2ccccc2NS(=O)(=O)C(F)(F)F)c(=O)on1CCc1ccccc1 [Compound 1-216]
Second: CCn1oc(=O)c(Cc2ccccc2N(S(=O)(=O)C(F)(F)F)S(=O)(=O)C(F)(F)F)c1C [Compound 1-960]
The “Herbicidal rate (%) Echinochloa crus-galli” value of the first is higher: 90% for the first, 70% for the second.

In the case of `CCCOC(=O)N(c1ccccc1Cc1c(C)n(C(C)(C)C)oc1=O)S(=O)(=O)C(F)(F)F` [Compound 1-631], the “Herbicidal rate (%) Echinochloa crus-galli” value is reported as 90%.

Each compound was assayed on Scirpus juncoides in the same assay as above. Conditions: 120 g/10a active ingredient, assessed 14 days after treatment, dry weight vs untreated area.
Format: in vivo
In short: as §2

Compared with `Cc1c(Cc2ccccc2NS(=O)(=O)C(F)(F)F)c(=O)on1CCc1ccccc1` [Compound 1-216], `CCn1oc(=O)c(Cc2ccccc2N(S(=O)(=O)C(F)(F)F)S(=O)(=O)C(F)(F)F)c1C` [Compound 1-960] is lower in “Herbicidal rate (%) Scirpus juncoides” value: 90% for the first, 70% for the second.

For `CCCOC(=O)N(c1ccccc1Cc1c(C)n(C(C)(C)C)oc1=O)S(=O)(=O)C(F)(F)F` [Compound 1-631], the “Herbicidal rate (%) Scirpus juncoides” value was 90%.

Each compound was assayed on broad leaf weeds (Lindernia pyxidaria and Monochoria vaginalis) in the same assay as above. Conditions: Lindernia pyxidaria, 120 g/10a active ingredient, assessed 14 days after treatment, dry weight vs untreated area.
Format: in vivo
In short: as §2

First: Cc1c(Cc2ccccc2NS(=O)(=O)C(F)(F)F)c(=O)on1CCc1ccccc1 [Compound 1-216]
Second: CCn1oc(=O)c(Cc2ccccc2N(S(=O)(=O)C(F)(F)F)S(=O)(=O)C(F)(F)F)c1C [Compound 1-960]
The “Herbicidal rate (%) Lindernia pyxidaria” value of the first is higher: 100% for the first, 70% for the second.

With `CCCOC(=O)N(c1ccccc1Cc1c(C)n(C(C)(C)C)oc1=O)S(=O)(=O)C(F)(F)F` [Compound 1-631] the “Herbicidal rate (%) Lindernia pyxidaria” value was 90%.

Same assay, conditions: Monochoria vaginalis, 120 g/10a active ingredient, assessed 14 days after treatment, dry weight vs untreated area

First: Cc1c(Cc2ccccc2NS(=O)(=O)C(F)(F)F)c(=O)on1CCc1ccccc1 [Compound 1-216]
Second: CCn1oc(=O)c(Cc2ccccc2N(S(=O)(=O)C(F)(F)F)S(=O)(=O)C(F)(F)F)c1C [Compound 1-960]
The “Herbicidal rate (%) Monochoria vaginalis” value of the first is higher: 100% for the first, 70% for the second.

`CCCOC(=O)N(c1ccccc1Cc1c(C)n(C(C)(C)C)oc1=O)S(=O)(=O)C(F)(F)F` [Compound 1-631] was tested, and the “Herbicidal rate (%) Monochoria vaginalis” value was 90%.

Each compound was assayed on Amaranthus viridis (assay: Test Example 3: herbicidal effect test by treatment of dry field farming soil (one day after seeding)). Conditions: 120 g/10a active ingredient, evaluated 14 days after treatment.
Format: in vivo
Procedure: (§3) This test was conducted in a double system per one agent solution concentration area, and the herbicidal rates (%) were determined by the following equation (Math. 1) on 14 days after the treatment with the agents. Herbicidal Rate (%)={1-(Average Dry Weight (g) of Plant of Treated Area)/(Average Dry Weight (g) of Plant of Untreated Area)}×100 [Math. 1]
(§4) Herbicidal Effect Test by Treatment of Dry Field Farming Soil
(§5) Pots with a size of 36 cm^2 were filled with a dry field farming soil (alluvium). The soil of the top layer of 1 cm and seeds of weeds, namely southern crabgrass, Echinochloa crus-galli, Chenopodium album and Amaranthus viridis, 20 seeds each, were evenly mixed, and the top layer was gently pressed. Emulsions prepared using the compounds in Table 5 below according to Formulation Example 5 were diluted with water one day after seeding, and the water-diluted agent solutions were sprayed to the soil surfaces at a ratio of 100 liters per 10 ares. The converted amount of the applied active ingredient corresponded to 120 g per 10 ares. The herbicidal effects were evaluated by the same standard as that in Test Example 1 on 14 days after the treatment with the agents. […] The compound numbers in Table 5 are the same as those in Table 1 and Table 2 above.

First: Cc1c(Cc2ccccc2NS(=O)(=O)C(F)(F)F)c(=O)on1CCc1ccccc1 [Compound 1-216]
Second: CCn1oc(=O)c(Cc2ccccc2N(S(=O)(=O)C(F)(F)F)S(=O)(=O)C(F)(F)F)c1C [Compound 1-960]
The “herbicidal rate, Amaranthus viridis” value of the first is higher: 40% for the first, 0% for the second.

`CCCOC(=O)N(c1ccccc1Cc1c(C)n(C(C)(C)C)oc1=O)S(=O)(=O)C(F)(F)F` [Compound 1-631] was tested, and the “herbicidal rate, Amaranthus viridis” value was 90%.

These compounds were tested on Chenopodium album in the same assay as above. Conditions: 120 g/10a active ingredient, evaluated 14 days after treatment.
Format: in vivo
Procedure: as §3, §4, §5

`Cc1c(Cc2ccccc2NS(=O)(=O)C(F)(F)F)c(=O)on1CCc1ccccc1` [Compound 1-216] and `CCn1oc(=O)c(Cc2ccccc2N(S(=O)(=O)C(F)(F)F)S(=O)(=O)C(F)(F)F)c1C` [Compound 1-960] are the same in “herbicidal rate, Chenopodium album” value: 0% for the first, 0% for the second.

In the case of `CCCOC(=O)N(c1ccccc1Cc1c(C)n(C(C)(C)C)oc1=O)S(=O)(=O)C(F)(F)F` [Compound 1-631], the “herbicidal rate, Chenopodium album” value is reported as 90%.

Each compound was assayed on Echinochloa crus-galli in the same assay as above. Conditions: 120 g/10a active ingredient, evaluated 14 days after treatment.
Format: in vivo
Procedure: as §3, §4, §5

Going from `Cc1c(Cc2ccccc2NS(=O)(=O)C(F)(F)F)c(=O)on1CCc1ccccc1` [Compound 1-216] to `CCn1oc(=O)c(Cc2ccccc2N(S(=O)(=O)C(F)(F)F)S(=O)(=O)C(F)(F)F)c1C` [Compound 1-960], the “herbicidal rate, Echinochloa crus-galli” value rises from 60% to 100%.

In the case of `CCCOC(=O)N(c1ccccc1Cc1c(C)n(C(C)(C)C)oc1=O)S(=O)(=O)C(F)(F)F` [Compound 1-631], the “herbicidal rate, Echinochloa crus-galli” value is reported as 90%.

What follows are compounds tested on southern crabgrass in the same assay as above. Conditions: 120 g/10a active ingredient, evaluated 14 days after treatment.
Format: in vivo
Procedure: as §3, §4, §5

Compared with `Cc1c(Cc2ccccc2NS(=O)(=O)C(F)(F)F)c(=O)on1CCc1ccccc1` [Compound 1-216], `CCn1oc(=O)c(Cc2ccccc2N(S(=O)(=O)C(F)(F)F)S(=O)(=O)C(F)(F)F)c1C` [Compound 1-960] is higher in “herbicidal rate, southern crabgrass” value: 70% for the first, 80% for the second.

`CCCOC(=O)N(c1ccccc1Cc1c(C)n(C(C)(C)C)oc1=O)S(=O)(=O)C(F)(F)F` [Compound 1-631] was tested, and the “herbicidal rate, southern crabgrass” value was 90%.
